Here are results for 14 compounds from US20250034153A1, “TRIAZOLOPYRIMIDINES AS A2A / A2B INHIBITORS” (Incyte Corporation, priority 2019, published 2025).

Assay [1] addresses human adenosine A2B receptor (Homo sapiens (Human), UniProt P29275). Description: Adenosine A2B receptor cyclic AMP GS assay (Example B). It is filed as cell-based. The conditions noted are these: HEK-293 cells expressing human A2B, agonist NECA 12 nM, cAMP accumulation (FRET); read-out: A2B_cAMP_EC50. As to the method:
Example B. Adenosine A2B Receptor Cyclic AMP GS Assay
Stably transfected HEK-293 cells expressing the human adenosine A2B receptor (Perkin Elmer) were maintained in MEM culture medium with 10% FBS and 100 μg/ml Geneticin (Life Technologies). 18 to 24 hours prior to assay, geneticin was removed from culture. The cisbio cAMP-GS Dynamic kit utilizing the FRET (Fluorescence Resonance Energy Transfer) technology was used to measure cAMP accumulation in the cells. Compounds of the present disclosure at an appropriate concentration were mixed with 10000 cells/well in white 96 well half area plates (Perkin Elmer) for 30 min at RT gently shaking. Agonist, NECA (R&D Technologies) at 12 nM was added to each well for 60 min at RT gently shaking. Detection reagents, d2-labeled cAMP (acceptor) and anti-cAMP cryptate (donor) were added to each well for 60 min at RT gently shaking. Plates were read on Pherastar (BMG Labtech), fluorescence ratio 665/620 was calculated and EC50 determination was performed by fitting the curve of percent of control versus the log of the compound concentration using GraphPad Prism.

The next assay addresses Adenosine A2A (Homo sapiens (Human), UniProt P29274). The assay is described as follows: A2A Tag-lite HTRF assay (Example C). The conditions noted are these: Tag-lite Adenosine A2A labeled cells, Red antagonist fluorescent ligand 12.5 nM, one-site competitive binding; read-out: A2A_Ki. On the procedure: Example C. A2A Tag-Lite® HTRF Assay
Assays were conducted in black low volume 384-well polystyrene plates (Greiner 784076-25) in a final volume of 10 μL. Test compounds were first serially diluted in DMSO and 100 nl added to the plate wells before the addition of other reaction components. The final concentration of DMSO was 1%. Tag-lite® Adenosine A2A labeled cells (CisBio C1TT1A2A) were diluted 1:5 into Tag-lite buffer (CisBio LABMED) and spun 1200 g for 5 mins. The pellet was resuspended at a volume 10.4× the initial cell suspension volume in Tag-lite buffer, and Adenosine A2A Receptor Red antagonist fluorescent ligand (CisBio L0058RED) added at 12.5 nM final concentration. 10 ul of the cell and ligand mix was added to the assay wells and incubated at room temperature for 45 minutes before reading on a PHERAstar FS plate reader (BMG Labtech) with HTRF 337/620/665 optical module. Percent binding of the fluorescent ligand was calculated; where 100 nM of A2A antagonist control ZM 241385 (Tocris 1036) displaces the ligand 100% and 1% DMSO has 0% displacement. The % binding data versus the log of the inhibitor concentration was fitted to a one-site competitive binding model (GraphPad Prism version 7.02) where the ligand constant=12.5 nM and the ligand Kd=1.85 nM.

human adenosine A2B receptor, sequence (P29275 whole entry): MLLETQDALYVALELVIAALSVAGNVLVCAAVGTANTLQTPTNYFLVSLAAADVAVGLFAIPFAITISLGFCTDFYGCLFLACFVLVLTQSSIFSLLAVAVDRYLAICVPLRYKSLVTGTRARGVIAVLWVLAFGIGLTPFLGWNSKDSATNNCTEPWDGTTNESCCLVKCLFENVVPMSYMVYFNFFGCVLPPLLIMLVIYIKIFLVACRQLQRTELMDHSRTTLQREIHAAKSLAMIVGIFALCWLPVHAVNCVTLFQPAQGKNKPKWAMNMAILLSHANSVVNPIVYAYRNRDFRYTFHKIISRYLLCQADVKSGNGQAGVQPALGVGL
Adenosine A2A, sequence (P29274 whole entry): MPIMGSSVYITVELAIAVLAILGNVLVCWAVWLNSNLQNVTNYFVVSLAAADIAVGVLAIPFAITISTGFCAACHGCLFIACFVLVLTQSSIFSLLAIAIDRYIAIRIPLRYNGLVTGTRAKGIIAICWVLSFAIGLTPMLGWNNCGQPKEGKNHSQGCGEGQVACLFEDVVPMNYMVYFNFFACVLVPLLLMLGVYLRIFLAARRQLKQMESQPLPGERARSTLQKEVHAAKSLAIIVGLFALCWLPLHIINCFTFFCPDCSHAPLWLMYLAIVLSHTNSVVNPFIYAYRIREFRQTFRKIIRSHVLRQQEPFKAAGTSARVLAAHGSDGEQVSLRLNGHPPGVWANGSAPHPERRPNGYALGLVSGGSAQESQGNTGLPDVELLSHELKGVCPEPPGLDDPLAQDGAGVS

On to `N#Cc1cccc(-c2nc(N)n3nc(Cn4nnc(-c5ccccn5)n4)nc3c2-c2ccncn2)c1` [Example 50, 3-(5-amino-2-((5-(pyridin-2-yl)-2H-tetrazol-2-yl)methyl)-8-(pyrimidin-4-yl)-[1,2,4]triazolo[1,5-c]pyrimidin-7-yl)benzonitrile], for which the EC50 in assay [1] was no more than 10 nM. The Ki at Adenosine A2A was no more than 10 nM.
`Cc1cccc(Nc2nc3c(-c4ccncn4)c(-c4cccc(C#N)c4)nc(N)n3n2)n1` [Example 40, 3-(5-amino-2-((6-methylpyridin-2-yl)amino)-8-(pyrimidin-4-yl)-[1,2,4]triazolo[1,5-c]pyrimidin-7-yl)benzonitrile]: the EC50 in assay [1] is no more than 10 nM. The Ki at Adenosine A2A was no more than 10 nM.
Regarding `Cc1cccnc1COc1nc2c(-c3ccc(=O)n(C)c3)c(-c3cccc(C#N)c3)nc(N)n2n1` [Example 18, 3-(5-amino-8-(1-methyl-6-oxo-1,6-dihydropyridin-3-yl)-2-((3-methylpyridin-2-yl)methoxy)-[1,2,4]triazolo[1,5-c]pyrimidin-7-yl)benzonitrile], the EC50 in assay [1] was no more than 10 nM. Also, on Adenosine A2A, the Ki is no more than 10 nM.
As for `COc1cc(-c2c(-c3cccc(C#N)c3)nc(N)n3nc(OCc4cccc(C)n4)nc23)cc(C)n1` [Example 59, 3-(5-amino-8-(2-methoxy-6-methylpyridin-4-yl)-2-((6-methylpyridin-2-yl)methoxy)-[1,2,4]triazolo[1,5-c]pyrimidin-7-yl)benzonitrile], the EC50 in assay [1] lay within 10 to 100 nM. Also, the Ki on Adenosine A2A was no more than 10 nM.
In the same order, the values of `Cc1cc(-c2c(-c3cccc(C#N)c3)nc(N)n3nc(OCc4ncccc4C)nc23)cc(C)n1` [Example 21, 3-(5-amino-8-(2,6-dimethylpyridin-4-yl)-2-((3-methylpyridin-2-yl)methoxy)-[1,2,4]triazolo[1,5-c]pyrimidin-7-yl)benzonitrile] are 10 to 100 nM and no more than 10 nM.
As to `N#Cc1cccc(-c2nc(N)n3nc(Cn4nnnc4-c4ccccn4)nc3c2-c2ccncc2)c1` [Example 10, 3-(5-amino-2-((5-(pyridin-2-yl)-1H-tetrazol-1-yl)methyl)-8-(pyridin-4-yl)-[1,2,4]triazolo[1,5-c]pyrimidin-7-yl)benzonitrile], in assay [1], the EC50 is no more than 10 nM. Further, the Ki at Adenosine A2A is no more than 10 nM.
Turning to `Cn1cc(-c2c(-c3cccc(C#N)c3)nc(N)n3nc(Cn4nnnc4-c4ncccn4)nc23)ccc1=O` [Example 7, 3-(5-amino-8-(1-methyl-6-oxo-1,6-dihydropyridin-3-yl)-2-((5-(pyrimidin-2-yl)-1H-tetrazol-1-yl)methyl)-[1,2,4]triazolo[1,5-c]pyrimidin-7-yl)benzonitrile], the EC50 in assay [1] lay in the range of 10 to 100 nM. In addition, the Ki at Adenosine A2A is no more than 10 nM.
In the same order, the values of `N#Cc1cccc(-c2nc(N)n3nc(Cc4c(F)cccc4-c4ccncc4)nc3c2-c2ccncc2)c1` [Example 13, 3-(5-amino-2-(2-fluoro-6-(pyridin-4-yl)benzyl)-8-(pyridin-4-yl)-[1,2,4]triazolo[1,5-c]pyrimidin-7-yl)benzonitrile] are no more than 10 nM and no more than 10 nM.
`Cc1cccnc1CNc1nc2c(-c3ccc(=O)n(C)c3)c(-c3cccc(C#N)c3)nc(N)n2n1` [Example 15, 3-(5-amino-8-(1-methyl-6-oxo-1,6-dihydropyridin-3-yl)-2-(((3-methylpyridin-2-yl)methyl)amino)-[1,2,4]triazolo[1,5-c]pyrimidin-7-yl)benzonitrile]: the EC50 in assay [1] is no more than 10 nM. Also, the Ki on Adenosine A2A is no more than 10 nM.
Take `Cc1cccnc1CNc1nc2c(-c3ccc(=O)n(C)c3)c(-c3cccc(C#N)c3F)nc(N)n2n1` [Example 23, 3-(5-amino-8-(1-methyl-6-oxo-1,6-dihydropyridin-3-yl)-2-(((3-methylpyridin-2-yl)methyl)amino)-[1,2,4]triazolo[1,5-c]pyrimidin-7-yl)-2-fluorobenzonitrile]: in assay [1], the EC50 was 10 to 100 nM. Also, the Ki on Adenosine A2A is no more than 10 nM.
The like results for `Cc1cc(-c2c(-c3cccc(C#N)c3)nc(N)n3nc(OCc4ncccc4F)nc23)cc(C)n1` [Example 32, 3-(5-amino-8-(2,6-dimethylpyridin-4-yl)-2-((3-fluoropyridin-2-yl)methoxy)-[1,2,4]triazolo[1,5-c]pyrimidin-7-yl)benzonitrile] were, in that order, 10 to 100 nM and no more than 10 nM.
`COc1cc(-c2c(-c3cccc(C#N)c3F)nc(N)n3nc(NCc4ncccc4C)nc23)cc(C)n1` [Example 26, 3-(5-amino-8-(2-methoxy-6-methylpyridin-4-yl)-2-(((3-methylpyridin-2-yl)methyl)amino)-[1,2,4]triazolo[1,5-c]pyrimidin-7-yl)-2-fluorobenzonitrile]: in assay [1], the EC50 lay within 10 to 100 nM. Also, the Ki at Adenosine A2A is no more than 10 nM.
The like results for `Cc1cc(-c2c(-c3cccc(C#N)c3)nc(N)n3nc(OCc4cccc(C)n4)nc23)cc(C)n1` [Example 58, 3-(5-amino-8-(2,6-dimethylpyridin-4-yl)-2-((6-methylpyridin-2-yl)methoxy)-[1,2,4]triazolo[1,5-c]pyrimidin-7-yl)benzonitrile] were, in that order, 100 to 1000 nM and no more than 10 nM.
In the same order, the values of `COc1cc(-c2c(-c3cccc(C#N)c3)nc(N)n3nc(OCc4ncccc4F)nc23)cc(C)n1` [Example 33, 3-(5-amino-2-((3-fluoropyridin-2-yl)methoxy)-8-(2-methoxy-6-methylpyridin-4-yl)-[1,2,4]triazolo[1,5-c]pyrimidin-7-yl)benzonitrile] are no more than 10 nM and no more than 10 nM.
